Laboratory results published in patent US20050074879A1, “Antisense oligonucleotide modulation of STAT3 expression” (priority 2000, published 2005).
Oligonucleotides are written 5' to 3', each unit as a sugar letter and its base; * is a phosphorothioate linkage, no mark a phosphodiester; rarer units and linkages stand in square brackets, end groups in braces. Plain capitals give the bases only. e = 2'-O-(2-methoxyethyl) (MOE); [5mC] = 5-methylcytosine; d = 2'-deoxy (DNA)

Each substance was assayed on Human STAT3 mRNA (assay: Inhibition of human STAT3 mRNA levels in A549 cells, 75 nM, real-time PCR (Table 13)). Conditions: 75 nM oligonucleotide with LIPOFECTIN, real-time PCR PPS 199, percent inhibition relative to untreated control cells, average of 2 experiments.
Format: cell-based
Summary of the method: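 A549 cells at 65–75% confluency were transfected in duplicate with 75 nM oligonucleotide plus […] Lipofectin for 4–7 h at 37° C and harvested 16–24 h later. STAT3 mRNA was quantified by real-time RT-PCR with primer-probe set PPS 199 and normalized to RiboGreen total RNA. Inhibition is relative to untreated controls.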

First: 337356 (antisense eA*eT*eG*eG*eT*dA*dT*dT*dG*d[5mC]*dT*dG*d[5mC]*dA*dG*eG*eT*e[5mC]*eG*eT) [compound 337356]
Second: 337357 (antisense eG*eG*eT*e[5mC]*eA*dA*dT*dG*dG*dT*dA*dT*dT*dG*d[5mC]*eT*eG*e[5mC]*eA*eG) [compound 337357]
The “% Inhib (inhibition of human STAT 3 mRNA levels)” value (“% Inhib” below) of the first is higher: 75% for the first, 71% for the second.

First: 337358 (antisense eG*eA*e[5mC]*eA*eT*d[5mC]*dG*dG*d[5mC]*dA*dG*dG*dT*d[5mC]*dA*eA*eT*eG*eG*eT) [compound 337358]
Second: 337359 (antisense e[5mC]*eA*eA*eT*eG*dA*dA*dT*d[5mC]*dT*dA*dA*dA*dG*dT*eG*e[5mC]*eG*eG*eG) [compound 337359]
The “% Inhib” value of the first is higher: 77% for the first, 57% for the second.

First: 337360 (antisense eT*eG*e[5mC]*eA*eT*d[5mC]*dA*dA*dT*dG*dA*dA*dT*d[5mC]*dT*eA*eA*eA*eG*eT) [compound 337360]
Second: 337361 (antisense e[5mC]*eA*eA*eA*e[5mC]*dT*dG*d[5mC]*dA*dT*d[5mC]*dA*dA*dT*dG*eA*eA*eT*e[5mC]*eT) [compound 337361]
The “% Inhib” value of the first is higher: 71% for the first, 61% for the second.

First: 337362 (antisense eA*eT*eT*eT*e[5mC]*d[5mC]*dA*dA*dA*d[5mC]*dT*dG*d[5mC]*dA*dT*e[5mC]*eA*eA*eT*eG) [compound 337362]
Second: 337363 (antisense eA*eA*e[5mC]*eT*eG*d[5mC]*d[5mC]*d[5mC]*dT*d[5mC]*d[5mC]*dT*dG*d[5mC]*dT*eG*eA*eG*eG*eG) [compound 337363]
The “% Inhib” value of the first is higher: 69% for the first, 63% for the second.

Compared with “337364 (antisense eG*eG*eT*eG*eA*dG*dG*dG*dA*d[5mC]*dT*d[5mC]*dA*dA*dA*e[5mC]*eT*eG*e[5mC]*e[5mC]) [compound 337364]”, “337365 (antisense e[5mC]*eA*eG*eT*e[5mC]*dG*dT*dA*dT*d[5mC]*dT*dT*dT*d[5mC]*dT*eG*e[5mC]*eA*eG*e[5mC]) [compound 337365]” is higher in “% Inhib” value: 70% for the first, 84% for the second.

First: 337366 (antisense eA*eG*eA*eT*eA*dG*d[5mC]*dA*dG*dA*dA*dG*dT*dA*dG*eG*eA*eG*eA*eT) [compound 337366]
Second: 337367 (antisense eA*eA*eA*eG*eT*dG*d[5mC]*d[5mC]*d[5mC]*dA*dG*dA*dT*dT*dG*e[5mC]*eT*e[5mC]*eA*eA) [compound 337367]
The “% Inhib” value of the first is lower: 66% for the first, 82% for the second.

Compared with “337368 (antisense eT*eT*eT*eT*eT*dA*dA*dA*dA*dG*dT*dG*d[5mC]*d[5mC]*d[5mC]*eA*eG*eA*eT*eT) [compound 337368]”, “337369 (antisense e[5mC]*eA*eG*eA*eT*d[5mC]*dA*d[5mC]*d[5mC]*d[5mC]*dA*d[5mC]*dA*dT*dT*e[5mC]*eA*e[5mC]*eT*e[5mC]) [compound 337369]” is higher in “% Inhib” value: 59% for the first, 88% for the second.

Going from “337370 (antisense eT*eG*e[5mC]*eA*eT*dT*dT*dA*dG*dA*dT*dA*dA*dA*dA*eG*e[5mC]*eA*eG*eA) [compound 337370]” to “337371 (antisense eG*eA*eA*e[5mC]*eA*d[5mC]*dA*dT*d[5mC]*d[5mC]*dT*dT*dA*dT*dT*eT*eG*e[5mC]*eA*eT) [compound 337371]”, the “% Inhib” value falls from 78% to 76%.

Compared with “337372 (antisense eA*eT*e[5mC]*eA*eT*dG*dG*dG*dT*d[5mC]*dT*d[5mC]*dA*dG*dA*eG*eA*eA*e[5mC]*eA) [compound 337372]”, “337373 (antisense e[5mC]*eA*e[5mC]*eA*eT*d[5mC]*d[5mC]*d[5mC]*d[5mC]*dT*dG*dA*dT*d[5mC]*dA*eT*eG*eG*eG*eT) [compound 337373]” is lower in “% Inhib” value: 88% for the first, 70% for the second.

Going from “337374 (antisense eA*eG*eA*e[5mC]*eA*dT*dT*dT*d[5mC]*d[5mC]*dT*dT*dT*dT*dT*e[5mC]*eT*e[5mC]*e[5mC]*e[5mC]) [compound 337374]” to “337375 (antisense eA*e[5mC]*e[5mC]*eA*eG*dG*dA*dG*dG*d[5mC]*dA*d[5mC]*dT*dT*dG*eT*e[5mC]*eT*eA*eA) [compound 337375]”, the “% Inhib” value rises from 67% to 89%.

Compared with “337376 (antisense eG*e[5mC]*eA*eG*eG*d[5mC]*dA*d[5mC]*d[5mC]*dA*dG*dG*dA*dG*dG*e[5mC]*eA*e[5mC]*eT*eT) [compound 337376]”, “337377 (antisense eG*e[5mC]*eT*eT*eA*d[5mC]*dA*dG*dA*dA*dA*d[5mC]*dA*dG*dG*e[5mC]*eA*eG*eA*eA) [compound 337377]” is lower in “% Inhib” value: 83% for the first, 78% for the second.

First: 337378 (antisense eA*eG*eG*eT*eG*dG*d[5mC]*d[5mC]*dT*dG*dT*dG*dG*d[5mC]*dA*eT*eT*eT*eG*e[5mC]) [compound 337378]
Second: 337379 (antisense eG*eT*eA*eT*eG*dT*dA*dG*d[5mC]*dT*dA*dT*dA*dG*dG*eT*eG*eG*e[5mC]*e[5mC]) [compound 337379]
The “% Inhib” value of the first is lower: 16% for the first, 71% for the second.

First: 337380 (antisense eG*e[5mC]*eA*eA*eT*dG*d[5mC]*d[5mC]*dA*dG*dG*dA*dG*dT*dA*eT*eG*eT*eA*eG) [compound 337380]
Second: 337381 (antisense eT*eT*eA*eA*eA*dA*dA*dG*dT*dG*d[5mC]*dA*dA*dT*dG*e[5mC]*e[5mC]*eA*eG*eG) [compound 337381]
The “% Inhib” value of the first is lower: 83% for the first, 86% for the second.

First: 337382 (antisense eG*eG*e[5mC]*eT*eT*dA*dG*dA*dT*dA*dG*dT*d[5mC]*d[5mC]*dT*eA*eT*e[5mC]*eT*eT) [compound 337382]
Second: 337383 (antisense eT*eA*eA*eA*eA*dA*dG*dA*dA*dA*d[5mC]*d[5mC]*dT*dA*dG*eG*eG*e[5mC]*eT*eT) [compound 337383]
The “% Inhib” value of the first is higher: 84% for the first, 81% for the second.

In the case of “337385 (antisense eT*eT*eA*eA*eG*dT*dT*dT*d[5mC]*dT*dT*dA*dA*dA*dT*eA*e[5mC]*eA*eG*eA) [compound 337385]”, the “% Inhib” value is reported as 70%.
